Assays:
[1] = molecular target: Ribosomal protein S6 kinase alpha-2 (Homo sapiens) (UniProt Q15349); conditions: Compound concentration 1000.0 nM
[2] = molecular target: Hepatocyte growth factor receptor (Homo sapiens) (UniProt P08581); conditions: Compound concentration 1000.0 nM
[3] = molecular target: Ephrin type-B receptor 4 (Homo sapiens) (UniProt P54760); conditions: Compound concentration 1000.0 nM
[4] = molecular target: Serine/threonine-protein kinase Nek3 (Homo sapiens) (UniProt P51956); conditions: Compound concentration 1000.0 nM
[5] = molecular target: Cytoplasmic tyrosine-protein kinase BMX (Homo sapiens) (UniProt P51813); conditions: Compound concentration 1000.0 nM
[6] = molecular target: Serine/threonine-protein kinase NIM1 (Homo sapiens) (UniProt Q8IY84); conditions: Compound concentration 1000.0 nM
[7] = molecular target: Serine/threonine-protein kinase 24 (Homo sapiens) (UniProt Q9Y6E0); conditions: Compound concentration 1000.0 nM
[8] = molecular target: Inhibitor of nuclear factor kappa-B kinase subunit beta (Homo sapiens) (UniProt O14920); conditions: Compound concentration 1000.0 nM
[9] = molecular target: Ephrin type-B receptor 6 (Homo sapiens) (UniProt O15197); conditions: Compound concentration 1000.0 nM
[10] = molecular target: Serine/threonine-protein kinase 25 (Homo sapiens) (UniProt O00506); conditions: Compound concentration 1000.0 nM
[11] = molecular target: Alpha-2C adrenergic receptor (Homo sapiens) (UniProt P18825); conditions: Compound concentration 10.0 uM
[12] = molecular target: Ribosomal protein S6 kinase alpha-3 (Homo sapiens) (UniProt P51812); conditions: Compound concentration 1000.0 nM
[13] = molecular target: Serine/threonine-protein kinase pim-1 (Homo sapiens) (UniProt P11309); conditions: Compound concentration 1000.0 nM
[14] = test system: Phosphatidylinositol 4,5-bisphosphate 3-kinase catalytic subunit alpha isoform (Homo sapiens), P42336 [M1043I]; conditions: Compound concentration 1000.0 nM
[15] = molecular target: Leucine-rich repeat serine/threonine-protein kinase 2 (Homo sapiens) (UniProt Q5S007); conditions: Compound concentration 1000.0 nM
[16] = molecular target: MAP kinase-activated protein kinase 2 (Homo sapiens) (UniProt P49137); conditions: Compound concentration 1000.0 nM
[17] = test system: Mast/stem cell growth factor receptor Kit (Homo sapiens), P10721 [V559D,V654A]; conditions: Compound concentration 1000.0 nM
[18] = test system: Phosphatidylinositol 4,5-bisphosphate 3-kinase catalytic subunit alpha isoform (Homo sapiens), P42336 [E545A]; conditions: Compound concentration 1000.0 nM
[19] = molecular target: SNF-related serine/threonine-protein kinase (Homo sapiens) (UniProt Q9NRH2); conditions: Compound concentration 1000.0 nM
[20] = molecular target: Casein kinase I isoform delta (Homo sapiens) (UniProt P48730); conditions: Compound concentration 1000.0 nM
[21] = molecular target: Mitogen-activated protein kinase 12 (Homo sapiens) (UniProt P53778); conditions: Compound concentration 1000.0 nM
[22] = molecular target: Serine/threonine-protein kinase PLK2 (Homo sapiens) (UniProt Q9NYY3); conditions: Compound concentration 1000.0 nM
[23] = molecular target: Cyclin-dependent kinase-like 1 (Homo sapiens) (UniProt Q00532); conditions: Compound concentration 1000.0 nM
[24] = molecular target: Serine/threonine-protein kinase 32A (Homo sapiens) (UniProt Q8WU08); conditions: Compound concentration 1000.0 nM
[25] = molecular target: Serine/threonine-protein kinase TBK1 (Homo sapiens) (UniProt Q9UHD2); conditions: Compound concentration 1000.0 nM
[26] = molecular target: Homeodomain-interacting protein kinase 2 (Homo sapiens) (UniProt Q9H2X6); conditions: Compound concentration 1000.0 nM
[27] = molecular target: Serine/threonine-protein kinase MRCK beta (Homo sapiens) (UniProt Q9Y5S2); conditions: Compound concentration 1000.0 nM
[28] = molecular target: Mitogen-activated protein kinase kinase kinase 2 (Homo sapiens) (UniProt Q9Y2U5); conditions: Compound concentration 1000.0 nM
[29] = molecular target: Phosphatidylinositol 4,5-bisphosphate 3-kinase catalytic subunit alpha isoform (Homo sapiens) (UniProt P42336); conditions: Compound concentration 1000.0 nM
[30] = molecular target: BMP-2-inducible protein kinase (Homo sapiens) (UniProt Q9NSY1); conditions: Compound concentration 1000.0 nM
[31] = molecular target: Dual specificity tyrosine-phosphorylation-regulated kinase 2 (Homo sapiens) (UniProt Q92630); conditions: Compound concentration 1000.0 nM
[32] = molecular target: Vascular endothelial growth factor receptor 2 (Homo sapiens) (UniProt P35968); conditions: Compound concentration 1000.0 nM
[33] = molecular target: Tyrosine-protein kinase JAK1 (Homo sapiens) (UniProt P23458); conditions: Compound concentration 1000.0 nM
[34] = test system: Receptor-type tyrosine-protein kinase FLT3 (Homo sapiens), P36888 [D835V]; conditions: Compound concentration 1000.0 nM
[35] = molecular target: Calcium/calmodulin-dependent protein kinase type II subunit beta (Homo sapiens) (UniProt Q13554); conditions: Compound concentration 1000.0 nM
[36] = molecular target: T1, D(4) dopamine receptor (Homo sapiens) (UniProt P21917); conditions: Compound concentration 10.0 uM
T1 sequence (whole entry): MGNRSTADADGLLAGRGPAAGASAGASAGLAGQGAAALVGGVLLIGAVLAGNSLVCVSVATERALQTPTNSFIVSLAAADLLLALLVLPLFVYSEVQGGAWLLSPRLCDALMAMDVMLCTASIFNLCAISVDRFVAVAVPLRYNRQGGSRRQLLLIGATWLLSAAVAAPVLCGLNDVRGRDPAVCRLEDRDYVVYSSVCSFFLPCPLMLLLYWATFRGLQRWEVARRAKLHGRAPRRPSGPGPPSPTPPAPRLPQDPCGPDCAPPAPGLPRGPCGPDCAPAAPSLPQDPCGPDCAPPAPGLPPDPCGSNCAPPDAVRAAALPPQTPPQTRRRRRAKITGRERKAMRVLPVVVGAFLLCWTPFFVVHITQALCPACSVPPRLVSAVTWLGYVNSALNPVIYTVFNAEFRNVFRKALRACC

[37] = molecular target: Cyclin-dependent kinase 4 (Homo sapiens) (UniProt P11802); conditions: Compound concentration 1000.0 nM
[38] = molecular target: Cyclin-dependent kinase 2 homolog (Plasmodium falciparum (isolate 3D7)) (UniProt P61075); conditions: Compound concentration 1000.0 nM
[39] = molecular target: Phosphatidylinositol 4,5-bisphosphate 3-kinase catalytic subunit beta isoform (Homo sapiens) (UniProt P42338); conditions: Compound concentration 1000.0 nM

Sequence of Serine/threonine-protein kinase PLK2 (Homo sapiens) (Q9NYY3 whole entry, looked up): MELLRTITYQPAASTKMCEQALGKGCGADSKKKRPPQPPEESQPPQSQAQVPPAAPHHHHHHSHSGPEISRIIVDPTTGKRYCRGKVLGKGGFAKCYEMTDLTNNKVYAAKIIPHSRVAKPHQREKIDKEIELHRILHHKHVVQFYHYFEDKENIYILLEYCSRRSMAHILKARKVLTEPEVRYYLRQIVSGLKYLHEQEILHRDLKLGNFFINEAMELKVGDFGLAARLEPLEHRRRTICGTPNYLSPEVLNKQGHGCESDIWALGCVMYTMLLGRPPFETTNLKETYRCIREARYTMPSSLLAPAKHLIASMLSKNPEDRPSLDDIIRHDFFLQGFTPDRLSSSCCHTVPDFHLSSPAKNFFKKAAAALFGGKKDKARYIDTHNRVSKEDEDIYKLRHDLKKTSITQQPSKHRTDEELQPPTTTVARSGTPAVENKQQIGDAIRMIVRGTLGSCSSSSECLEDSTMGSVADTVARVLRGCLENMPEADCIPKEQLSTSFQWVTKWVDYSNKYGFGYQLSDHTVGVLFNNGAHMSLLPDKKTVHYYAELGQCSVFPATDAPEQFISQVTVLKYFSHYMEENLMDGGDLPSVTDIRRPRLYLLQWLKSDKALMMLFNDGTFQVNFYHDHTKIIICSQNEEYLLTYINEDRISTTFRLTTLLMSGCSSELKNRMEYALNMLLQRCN
Sequence of Ribosomal protein S6 kinase alpha-2 (Homo sapiens) (Q15349 whole entry): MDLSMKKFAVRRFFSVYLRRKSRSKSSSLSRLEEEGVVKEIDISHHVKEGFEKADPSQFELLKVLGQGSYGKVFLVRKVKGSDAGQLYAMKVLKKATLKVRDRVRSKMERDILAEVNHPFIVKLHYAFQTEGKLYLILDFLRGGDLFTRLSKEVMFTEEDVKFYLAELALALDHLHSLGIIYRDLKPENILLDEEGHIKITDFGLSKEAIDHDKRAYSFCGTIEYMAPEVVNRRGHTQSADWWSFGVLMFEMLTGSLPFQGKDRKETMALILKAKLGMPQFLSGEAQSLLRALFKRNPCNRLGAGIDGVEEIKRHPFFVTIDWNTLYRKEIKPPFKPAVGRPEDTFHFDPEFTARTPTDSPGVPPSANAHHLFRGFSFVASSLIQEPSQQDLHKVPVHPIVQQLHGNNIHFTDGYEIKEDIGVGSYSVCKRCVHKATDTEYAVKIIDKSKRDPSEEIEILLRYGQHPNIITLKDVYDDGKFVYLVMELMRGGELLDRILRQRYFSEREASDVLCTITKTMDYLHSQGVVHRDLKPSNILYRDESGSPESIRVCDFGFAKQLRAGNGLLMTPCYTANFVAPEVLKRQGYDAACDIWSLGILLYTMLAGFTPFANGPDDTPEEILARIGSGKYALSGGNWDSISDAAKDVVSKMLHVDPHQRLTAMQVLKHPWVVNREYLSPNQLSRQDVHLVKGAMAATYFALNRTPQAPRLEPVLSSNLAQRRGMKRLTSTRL
Sequence of Phosphatidylinositol 4,5-bisphosphate 3-kinase catalytic subunit alpha isoform (Homo sapiens), P42336 [M1043I] (P42336 whole entry M1043I, canonical isoform): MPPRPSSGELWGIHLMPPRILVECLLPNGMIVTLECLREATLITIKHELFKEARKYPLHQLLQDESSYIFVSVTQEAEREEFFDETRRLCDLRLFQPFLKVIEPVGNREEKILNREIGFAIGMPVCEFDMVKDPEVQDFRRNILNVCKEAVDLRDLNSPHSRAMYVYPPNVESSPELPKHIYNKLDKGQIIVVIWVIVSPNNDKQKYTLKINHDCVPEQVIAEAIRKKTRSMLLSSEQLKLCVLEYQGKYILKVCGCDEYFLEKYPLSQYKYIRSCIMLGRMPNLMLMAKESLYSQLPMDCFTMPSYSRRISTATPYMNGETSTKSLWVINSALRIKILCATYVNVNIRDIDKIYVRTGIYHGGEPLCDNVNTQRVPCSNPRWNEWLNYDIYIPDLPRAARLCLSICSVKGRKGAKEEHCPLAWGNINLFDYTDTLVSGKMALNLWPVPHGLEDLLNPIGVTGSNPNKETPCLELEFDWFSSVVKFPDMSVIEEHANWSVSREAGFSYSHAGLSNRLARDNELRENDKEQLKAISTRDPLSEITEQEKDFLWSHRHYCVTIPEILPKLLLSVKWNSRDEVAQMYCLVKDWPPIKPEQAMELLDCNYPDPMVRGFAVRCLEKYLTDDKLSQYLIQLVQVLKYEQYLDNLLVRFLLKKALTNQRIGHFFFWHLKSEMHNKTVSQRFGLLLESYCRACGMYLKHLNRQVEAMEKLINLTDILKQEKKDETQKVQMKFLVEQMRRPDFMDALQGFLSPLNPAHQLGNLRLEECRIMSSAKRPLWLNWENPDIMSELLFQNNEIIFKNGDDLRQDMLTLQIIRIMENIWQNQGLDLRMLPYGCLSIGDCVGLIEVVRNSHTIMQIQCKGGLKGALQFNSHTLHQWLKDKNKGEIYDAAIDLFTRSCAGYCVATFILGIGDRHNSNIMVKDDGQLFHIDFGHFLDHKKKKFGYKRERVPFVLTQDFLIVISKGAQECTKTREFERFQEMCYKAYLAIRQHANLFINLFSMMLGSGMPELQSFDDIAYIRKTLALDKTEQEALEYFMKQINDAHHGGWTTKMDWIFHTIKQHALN
Sequence of Tyrosine-protein kinase JAK1 (Homo sapiens) (P23458 whole entry): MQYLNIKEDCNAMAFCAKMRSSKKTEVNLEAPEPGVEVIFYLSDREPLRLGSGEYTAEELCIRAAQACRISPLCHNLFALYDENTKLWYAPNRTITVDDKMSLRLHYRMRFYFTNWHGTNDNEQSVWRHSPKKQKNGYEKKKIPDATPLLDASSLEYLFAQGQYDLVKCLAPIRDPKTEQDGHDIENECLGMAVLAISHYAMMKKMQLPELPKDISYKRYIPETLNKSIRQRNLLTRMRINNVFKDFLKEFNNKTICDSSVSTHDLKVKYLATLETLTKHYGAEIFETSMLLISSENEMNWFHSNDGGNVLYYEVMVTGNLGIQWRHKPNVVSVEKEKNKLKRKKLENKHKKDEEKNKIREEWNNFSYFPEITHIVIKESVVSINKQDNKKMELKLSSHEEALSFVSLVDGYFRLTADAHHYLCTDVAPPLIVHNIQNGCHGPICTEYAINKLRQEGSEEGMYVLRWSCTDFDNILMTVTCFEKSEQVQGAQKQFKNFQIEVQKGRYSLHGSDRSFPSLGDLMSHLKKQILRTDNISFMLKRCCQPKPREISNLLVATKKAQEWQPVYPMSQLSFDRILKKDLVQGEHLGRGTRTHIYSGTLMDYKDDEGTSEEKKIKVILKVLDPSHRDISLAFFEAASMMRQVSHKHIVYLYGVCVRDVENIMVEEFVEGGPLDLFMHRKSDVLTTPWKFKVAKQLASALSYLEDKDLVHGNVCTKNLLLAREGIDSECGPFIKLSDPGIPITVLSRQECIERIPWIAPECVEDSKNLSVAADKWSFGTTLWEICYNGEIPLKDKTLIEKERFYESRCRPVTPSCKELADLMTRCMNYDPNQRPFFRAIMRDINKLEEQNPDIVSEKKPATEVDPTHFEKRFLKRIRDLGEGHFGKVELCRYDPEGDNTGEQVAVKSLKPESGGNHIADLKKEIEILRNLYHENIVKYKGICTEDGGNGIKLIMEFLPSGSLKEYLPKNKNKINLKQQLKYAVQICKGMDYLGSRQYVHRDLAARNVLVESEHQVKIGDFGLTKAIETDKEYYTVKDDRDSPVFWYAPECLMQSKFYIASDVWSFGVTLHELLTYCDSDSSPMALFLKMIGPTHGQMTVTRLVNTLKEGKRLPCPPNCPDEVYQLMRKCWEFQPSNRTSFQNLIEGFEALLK
Sequence of Vascular endothelial growth factor receptor 2 (Homo sapiens) (P35968 whole entry): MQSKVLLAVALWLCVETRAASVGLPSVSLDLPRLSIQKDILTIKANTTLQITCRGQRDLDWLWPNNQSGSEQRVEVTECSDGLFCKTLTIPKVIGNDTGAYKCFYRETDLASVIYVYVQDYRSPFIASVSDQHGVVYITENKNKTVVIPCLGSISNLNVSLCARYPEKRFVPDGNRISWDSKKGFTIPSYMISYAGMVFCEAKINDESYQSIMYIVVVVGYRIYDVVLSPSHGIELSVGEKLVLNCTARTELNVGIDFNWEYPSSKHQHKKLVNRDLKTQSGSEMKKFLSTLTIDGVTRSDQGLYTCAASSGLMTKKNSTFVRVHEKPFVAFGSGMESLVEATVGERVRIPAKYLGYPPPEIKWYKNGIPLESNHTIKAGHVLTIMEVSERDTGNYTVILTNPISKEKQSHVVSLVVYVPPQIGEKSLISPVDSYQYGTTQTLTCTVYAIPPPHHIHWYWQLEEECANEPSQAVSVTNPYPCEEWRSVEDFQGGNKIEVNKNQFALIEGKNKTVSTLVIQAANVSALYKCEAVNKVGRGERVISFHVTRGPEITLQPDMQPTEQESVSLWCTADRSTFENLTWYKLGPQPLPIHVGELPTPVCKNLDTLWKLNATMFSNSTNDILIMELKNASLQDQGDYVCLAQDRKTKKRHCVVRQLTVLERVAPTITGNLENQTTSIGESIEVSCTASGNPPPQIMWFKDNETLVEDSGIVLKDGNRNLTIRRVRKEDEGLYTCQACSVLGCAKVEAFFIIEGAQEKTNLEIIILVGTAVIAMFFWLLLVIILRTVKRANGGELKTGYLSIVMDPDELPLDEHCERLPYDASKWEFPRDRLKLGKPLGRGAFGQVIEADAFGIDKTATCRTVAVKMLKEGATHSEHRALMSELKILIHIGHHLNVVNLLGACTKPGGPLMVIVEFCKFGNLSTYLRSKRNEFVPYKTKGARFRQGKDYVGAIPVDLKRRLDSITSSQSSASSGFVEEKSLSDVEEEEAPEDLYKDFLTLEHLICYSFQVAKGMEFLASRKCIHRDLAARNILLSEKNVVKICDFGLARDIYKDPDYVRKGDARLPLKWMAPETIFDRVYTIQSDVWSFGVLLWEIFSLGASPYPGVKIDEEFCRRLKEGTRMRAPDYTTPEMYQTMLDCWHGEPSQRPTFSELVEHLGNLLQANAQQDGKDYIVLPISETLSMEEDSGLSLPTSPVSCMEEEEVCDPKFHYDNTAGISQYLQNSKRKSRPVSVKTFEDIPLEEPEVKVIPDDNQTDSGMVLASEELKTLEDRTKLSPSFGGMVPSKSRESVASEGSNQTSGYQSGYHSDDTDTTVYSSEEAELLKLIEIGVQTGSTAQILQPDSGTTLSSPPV

CCS(=O)(=O)c1cc2cc(C[C@@](O)(CC(C)(C)c3ccc(F)cc3C(N)=O)C(F)(F)F)[nH]c2cn1
inactive: residual activity [2] 100% | residual activity [3] 100% | residual activity [4] 100% | residual activity [5] 50% | residual activity [6] 51% | residual activity [8] 83% | residual activity [9] 100% | residual activity [10] 87% | inhibition [11] 5.83% | residual activity [12] 100% | residual activity [13] 97% | residual activity [14] 99% | residual activity [16] 100% | residual activity [17] 81% | residual activity [18] 99% | residual activity [19] 98% | residual activity [20] 100% | residual activity [21] 100% | residual activity [22] 100% | residual activity [23] 78% | residual activity [24] 77% | residual activity [25] 87% | residual activity [26] 100% | residual activity [27] 99% | residual activity [28] 100% | residual activity [29] 100% | residual activity [30] 69% | residual activity [31] 83% | residual activity [32] 92% | residual activity [33] 90% | residual activity [34] 79% | residual activity [35] 100% | inhibition [36] 5.32% | residual activity [37] 97% | residual activity [38] 100% | residual activity [39] 87%
active: residual activity [1] 0% | residual activity [7] 0% | residual activity [15] 42%

CCS(=O)(=O)c1cc2cc(C[C@](O)(CC(C)(C)c3ccc(F)cc3C(N)=O)C(F)(F)F)[nH]c2cn1
inactive: residual activity [1] 81% | residual activity [2] 98% | residual activity [3] 100% | residual activity [4] 100% | residual activity [5] 74% | residual activity [6] 100% | residual activity [7] 86% | residual activity [8] 91% | residual activity [9] 100% | residual activity [10] 86% | inhibition [11] -1.88% | residual activity [12] 93% | residual activity [13] 100% | residual activity [14] 88% | residual activity [15] 100% | residual activity [16] 100% | residual activity [17] 79% | residual activity [18] 100% | residual activity [19] 100% | residual activity [20] 96% | residual activity [21] 100% | residual activity [22] 91% | residual activity [23] 81% | residual activity [24] 84% | residual activity [25] 93% | residual activity [26] 100% | residual activity [27] 100% | residual activity [28] 100% | residual activity [29] 81% | residual activity [30] 83% | residual activity [31] 92% | residual activity [32] 83% | residual activity [33] 95% | residual activity [34] 95% | residual activity [35] 97% | inhibition [36] -7.41% | residual activity [37] 96% | residual activity [38] 100% | residual activity [39] 98%

Reference: ChEMBL document CHEMBL4507277
